# According to US20100204286A1, “METHOD FOR REDUCING GASTROINTESTINAL ADVERSE EFFECTS OF CYTOTOXIC AGENTS” (priority 2009, published 2010):
# Tests used:
# [1] = tested on: LPS-induced NF-κB-dependent transcription; test: LPS-induced NF-κB-dependent transcription in extracted organs of NF-κB::Luc mice (luciferase assay); format: in vivo; conditions: 30 mg/kg; 0.5 mg/kg LPS; versus LPS alone
# Source text: For luciferase assays, organs were extracted and snap frozen in liquid nitrogen. All tissue samples were placed in lysis buffer with inhibitors (Passive Lysis Buffer (Promega) and Complete Mini Protease Inhibitor Cocktail (Roche, Indianapolis, Ind.)), and were homogenized using a tissue homogenizer (Handishear, Hand-held homogenizer, VirTis, Gardiner, N.Y.). Tissue homogenates were centrifuged and clarified lysates were used for luminometer assays and western blots. For the luminometer assays, Luciferase Assay Substrate (Luciferase Assay System, Promega) was prepared as indicated by the manufacturer and placed in disposable cuvettes. […] Background luminescence readings were obtained and the background readings were subtracted from the luminescent data. Protein concentrations were determined using the BCA Protein Assay Kit (Pierce, Rockford, Ill.) following the manufacturer's protocols and analyzed using a VERSAmax tunable microplate reader and associated Softmax Pro version 3.1.2 software (Molecular Devices, Sunnyvale Calif.). The luminescence for each of the protein lysates was calculated as arbitrary units of light per microgram of protein. […]
# ORE1001 was further tested for in vivo anti-inflammatory activity by examining its effects on bacterial LPS-induced NF-κB-dependent transcription, in NF-κB::Luc mice. […] Luciferase signal was quantitated from several regions of interest. […]
# [2] = tested on: activator protein-1 (AP-1); test: Basal in vivo reporter luciferase expression in AP-1::Luc mice; conditions: data not shown
# [3] = tested on: LPS-induced NF-κB signaling; test: In vivo LPS-induced NF-κB-dependent transcription in NF-κB::Luc mice (abdominal imaging)
# Source text: (§1) More particularly, transgenic NF-κB::Luc mice were generated using three NF-κB response elements from the Igic light chain promoter fused to a firefly luciferase gene as described by Carlsen et al. (2002) J. Immunol. 168:1441-1446. Pronuclear microinjection of purified construct DNA was used to generate transgenic founders in the C57BL/6 XCBA/J background. Founders were subsequently back crossed to the C57BL/6 albino background. All experimental protocols were approved by the Institutional Animal Care and Use Committee and conform to the ILAR guide for the care and used of laboratory animals. […] Signal data were also quantitated and archived using the Living Image® software. Photons of light were quantitated using an oval region of interest (ROI) of varying sizes depending on the procedure, as described further below.
# ORE1001 was further tested for in vivo anti-inflammatory activity by examining its effects on bacterial LPS-induced NF-κB-dependent transcription, in NF-κB::Luc mice. […] Mice were subjected to quantitative abdominal imaging at 2, 4 and 6 h following LPS administration, as described above. […] Luciferase signal was quantitated from several regions of interest. […]
# As shown by the quantitative imaging data in FIG. 4, LPS induced a strong NF-κB-dependent luciferase signal in control mice, indicating a strong NF-κB signaling response, as expected. […]
# [4] = tested on: NF-κB-dependent transcription; test: TNFα-induced activation of NF-κB in recombinant HeLa reporter cells (luciferase); format: cell-based
# Source text: To test the ACE2 inhibitor ORE1001 for anti-inflammatory activity relevant to IBD, effects of the compound on activation of NF-κB-dependent transcription by TNFα were examined in recombinant reporter cells containing a construct with a luciferase reporter gene under control of NF-κB-dependent regulatory sequences, thereby allowing detection of NF-κB-dependent transcription by measuring reporter enzyme using a conventional luciferase activity assay based on detection of generated light.
# In particular, HeLa cells (American Type Culture Collection) were grown in Dulbecco's modified Eagles medium (DMEM) supplemented with 10% fetal calf serum and transiently transfected with an NF-κB—luc construct (Stratagene, Inc.), as follows (with all incubation steps at 37 C unless otherwise indicated). Cells were seeded and grown to about 70% confluency in a 10 cm cell culture dish. Plasmid DNA (10 μg) was added to 1 ml serum free DMEM media in a tube. Fugene 6 transfection reagent (30 μl) (Roche) was then pipetted slowly into the tube and the contents were gently mixed by inversion. The mixture was incubated at room temperature for 15 minutes and then added dropwise to cells in one 10 cm dish. Following incubation for 24 hours, cells were detached from the plate with Trypsin-EDTA (Gibco-BRL), transferred to wells in a clear-bottom white 96-well test plate (Fisher) with 100 μl per well serum free DMEM, at a density of 3×10^4 cells per well, and allowed to attach overnight. Compound (ORE1001) was then added to wells at a concentration of approximately 0, 0.008, 0.04, 0.2, 1.0 or 5.0 μM, followed immediately by addition of TNFα (R&D) to a final concentration of 20 ng/ml. After incubation for 6 hours, 100 μl of Bright-Glo Luciferase buffer (Promega, Cat#E2610) was added, and the plate was incubated at room temperature, with mild shaking, for 10 min. Bioluminescence was then measured using a Veritas luminometer (Turner BioSystems). Each plotted data point represents the average bioluminescence of 4 independent wells.
# [5] = tested on: radiation-induced proctitis; test: Rat model of radiation-induced proctitis (endoscopy, histopathology, body weight); format: in vivo; conditions: for proctitis severity (endoscopy, day 8): 17.5 Gy on day 0
# Source text: A rat model was used to determine whether ORE1001 can reduce severity of radiation-induced proctitis, as assessed by endoscopy, and can reduce histopathological indicators of radiation-induced proctitis. This is a validated model, as described for example in the publications cited individually below and incorporated herein by reference.
# Female Lewis rats of body weight 175-200 g and 6-8 weeks old were randomized into 3 groups of 8 animals each, for induction of proctitis by radiation as described below. In addition, a group of 8 female Lewis rats of body weight 175-200 g and 6-8 weeks old were followed as untreated, non-irradiated controls. Animals were acclimated prior to study commencement. The study was performed in animal rooms provided with filtered air at a temperature of 70±5° F. (˜21±3° C.) and relative humidity of 50±20%, and a 12 h/12 h light/dark cycle. Animals were fed with LabDiet 5053 sterile irradiated rat chow. Water was provided ad libitum.
# Proctitis was induced by a single 17.5 Gy dose of radiation at a rate of 1 Gy/minute administered to each animal on day 0. Lead shielding was used to cover the animal except for a 3×4 cm area of the lower pelvis, permitting exposure to radiation of an approximately 2 cm length of rectum and distal descending colon. Radiation was generated with a Kimtron 160 kV, 15 mA source at a focal distance of 30 cm, hardened with a 0.35 mm Cu filtration system. Prior to irradiation, animals were anesthetized with an intraperitoneal injection of ketamine (100 mg/kg) and xylazine (5 mg/kg). Animals were inclined in a slightly head-down position, to allow gravity to move non-target abdominal organs out of the radiation path as much as possible.
# ORE1001 in a vehicle of 0.5% carboxymethylcellulose (CMC) in sterile water was administered per os at a daily dose of 600 mg/kg in 5 ml/kg vehicle from day 0 to day 7 (first group) or from day −2 to day 7 (second group). A third group received vehicle only, from day −2 to day 7.
# All animals were weighed daily and examined for diarrhea and fecal blood. On day 8, all animals were examined by rodent endoscope under isoflurane anesthesia and were scored for severity of proctitis. Following endoscopy, animals were euthanized by CO2 inhalation and the descending colon and rectum to the anus were taken as a single tissue sample for histological examination. Histopathology was recorded by scoring inflammation, edema and necrosis.
# [6] = tested on: NF-κB-dependent transcription; test: In vivo basal NF-κB-dependent transcription in NF-κB::Luc reporter mice (abdominal imaging); conditions: 4 hours
# Source text: ORE1001 was further tested for in vivo anti-inflammatory activity by examining its effects on basal levels of NF-κB-dependent transcription in mice engineered in the germline with a construct containing an NF-κB enhancer linked to a luciferase gene (i.e., NF-κB::Luc mice), such that this NF-κB reporter construct is present in all cells of the mice.
# as §1, with “background.” for “background. All experimental protocols were approved by the Institutional Animal Care and Use Committee and conform to the ILAR guide for the care and used of laboratory animals.”
# To test for in vivo effects of ORE1001 on basal levels of NF-κB-dependent transcription, male NF-κB::Luc mice were subjected to quantitative in vivo imaging of the abdominal area (using a fixed ROI of 2.76×3.7 cm) as described above, immediately before, and at 2, […]
# [7] = 600 mg/kg per os daily, day 0 to day 7
# [8] = 600 mg/kg per os daily, day −2 to day 7
smiles,measurement,setting,value
"CC(C)C[C@H](N[C@@H](Cc1cncn1Cc1cc(Cl)cc(Cl)c1)C(=O)O)C(=O)O [ORE1001, (S,S)-2-[1-carboxy-2-[3-(3,5-dichlorobenzyl)-3H-imidazol-4-yl]-ethylamino]-4-methylpentanoic acid]","LPS-induced NF-κB signaling in pancreas and uterus, or any other organ analyzed",[1],no statistically significant decrease
same,reduction of LPS-induced NF-κB-dependent transcription in stomachs,[1],about 37 fold
same,basal in vivo levels of reporter luciferase expression,[2],no significant effect
same,"LPS-induced NF-κB signaling response, abdominal region","[3]; FIG. 4, 30, 100, 300 mg/kg subcutaneous 1 hour before LPS i.v.",significantly reduced
same,"LPS-induced NF-κB signaling, abdominal region","[3]; FIG. 5, lower dose range 3-100 mg/kg, at 30 and 100 mg/kg",significantly reduced
same,inhibition of TNFα-induced activation of NF-κB-dependent transcription,"[4]; 8 nM, TNFα 20 ng/ml, 6 hours, HeLa",over 80%
same,maximal inhibition of TNFα-induced activation of NF-κB-dependent transcription,"[4]; 0.2 μM, TNFα 20 ng/ml, 6 hours, HeLa",over 95%
same,TNFα-induced activation of NF-κB-dependent transcription,[4]; all tested concentrations (0.008-5.0 μM),significantly inhibited
same,edema score (histopathology),[5]; [7],statistically non-significant trend for reduction
same,necrosis score (histopathology),[5]; [7],statistically non-significant trend for reduction
same,sum score (histopathology),[5]; [7],statistically non-significant trend for reduction
same,"proctitis severity (endoscopy, day 8)",[5]; [7],minor but statistically non-significant reduction
same,inflammation score (histopathology),[5]; [8],statistically significant reductions
same,necrosis score (histopathology),[5]; [8],statistically significant reductions
same,"sum of inflammation, edema and necrosis scores",[5]; [8],statistically significant reductions
same,"proctitis severity (endoscopy, day 8)",[5]; [8],substantial reduction
same,body weight change,[5]; among the treatments,No major differences
same,inhibition of basal in vivo levels of NF-κB-dependent transcription in abdominal ROI,"[6]; 300 mg/kg subcutaneous, p<0.01",over 40%
same,inhibition of basal in vivo levels of NF-κB-dependent transcription in abdominal ROI,"[6]; both lower doses, subcutaneous",lesser but still significant extents
